The record followed here is publication PMC4105021 (ChemMedChem, 2014).

In test [1] the test system is human TLR2, TLR3, TLR4, TLR5, TLR7, TLR9, TLR10, Nod1 and Nod2. Put plainly: counter-screen in reporter cell lines specific for other human TLRs and Nods. The test is classed as cell-based. (The purpose of a counterscreen is to sort out artefacts and off-target activity.)
Test [2] concerns human peripheral blood mononuclear cells. The format is cell-based. The note with it: human PBMCs and whole human blood, Fig. 6.

Take `CCCCNc1cc2ccccc2nc1N` [Compound 9, N^3-butylquinoline-2,3-diamine]: the specificity in counter-screens result in test [1] was “specific for human TLR8”.

Take `CCCCCc1cc2ccccc2nc1N` [Compound 14b, 3-pentylquinolin-2-amine]: the cytokine/chemokine induction profile result in test [2] was “induction of a specific set of chemokines and proinflammatory cytokines, including interleukins 12 and 18”.

Turning to `CCCCSc1cc2ccccc2nc1N` [Compound 12, 3-(butylthio)quinolin-2-amine], in test [1], the specificity in counter-screens result is on record as “specific for human TLR8”.

For `CCCCOc1cc2ccccc2nc1N` [Compound 6, 3-butoxyquinolin-2-amine], the specificity in counter-screens entry in test [1] is recorded as “specific for human TLR8”.
